A word on the IC50: it is the concentration that inhibits the measured activity by half. Usually inhibition stands for the relative decrease from the control value, in per cent. High values mean a strong effect, low ones a weak effect.

The source of these data is ChEMBL document CHEMBL3997794, “Design and synthesis of benzodiazepine analogs as isoform-selective human lysine deacetylase inhibitors” (Eur J Med Chem, 2017).

Test [1] deals with T1, Protein deacetylase HDAC6 (Homo sapiens, UniProt Q9UBN7).
T1 sequence (Q9UBN7 whole entry): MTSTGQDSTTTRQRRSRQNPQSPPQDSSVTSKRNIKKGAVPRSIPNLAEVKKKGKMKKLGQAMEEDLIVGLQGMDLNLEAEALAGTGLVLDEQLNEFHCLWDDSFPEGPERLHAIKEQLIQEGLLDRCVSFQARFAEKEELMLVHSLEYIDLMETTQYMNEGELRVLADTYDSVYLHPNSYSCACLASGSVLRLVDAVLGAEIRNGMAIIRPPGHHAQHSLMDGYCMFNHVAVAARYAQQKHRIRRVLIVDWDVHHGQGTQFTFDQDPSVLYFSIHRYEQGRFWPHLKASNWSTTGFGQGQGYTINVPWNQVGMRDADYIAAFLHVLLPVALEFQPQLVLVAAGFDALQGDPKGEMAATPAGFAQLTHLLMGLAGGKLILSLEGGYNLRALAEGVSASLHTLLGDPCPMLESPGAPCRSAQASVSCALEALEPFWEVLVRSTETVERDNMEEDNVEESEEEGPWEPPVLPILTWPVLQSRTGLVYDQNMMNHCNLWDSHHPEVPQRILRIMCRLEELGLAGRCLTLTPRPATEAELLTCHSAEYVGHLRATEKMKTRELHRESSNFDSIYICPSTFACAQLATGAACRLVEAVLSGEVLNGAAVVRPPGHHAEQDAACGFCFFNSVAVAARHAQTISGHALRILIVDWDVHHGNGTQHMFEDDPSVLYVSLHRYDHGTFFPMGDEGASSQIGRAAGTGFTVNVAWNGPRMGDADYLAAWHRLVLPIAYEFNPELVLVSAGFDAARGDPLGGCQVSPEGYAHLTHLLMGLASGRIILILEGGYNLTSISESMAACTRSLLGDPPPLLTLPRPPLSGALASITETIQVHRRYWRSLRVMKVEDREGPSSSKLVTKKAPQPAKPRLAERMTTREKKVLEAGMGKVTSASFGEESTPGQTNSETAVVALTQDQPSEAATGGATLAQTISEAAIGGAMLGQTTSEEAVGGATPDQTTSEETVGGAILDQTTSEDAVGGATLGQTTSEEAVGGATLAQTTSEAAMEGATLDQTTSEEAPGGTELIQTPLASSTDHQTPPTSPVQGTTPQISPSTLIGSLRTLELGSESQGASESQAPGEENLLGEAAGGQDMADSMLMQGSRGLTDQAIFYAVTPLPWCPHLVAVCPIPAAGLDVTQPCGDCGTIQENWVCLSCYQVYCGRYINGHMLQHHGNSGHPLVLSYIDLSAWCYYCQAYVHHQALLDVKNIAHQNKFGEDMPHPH
Briefly: Inhibition of human KDAC6 using FITC-labeled histone H4 acetylated peptide as substrate after 60 mins by fluorescence assay.

The target of the next test is T2, Histone deacetylase 8 (Homo sapiens, UniProt Q9BY41).
T2 sequence (Q9BY41 whole entry): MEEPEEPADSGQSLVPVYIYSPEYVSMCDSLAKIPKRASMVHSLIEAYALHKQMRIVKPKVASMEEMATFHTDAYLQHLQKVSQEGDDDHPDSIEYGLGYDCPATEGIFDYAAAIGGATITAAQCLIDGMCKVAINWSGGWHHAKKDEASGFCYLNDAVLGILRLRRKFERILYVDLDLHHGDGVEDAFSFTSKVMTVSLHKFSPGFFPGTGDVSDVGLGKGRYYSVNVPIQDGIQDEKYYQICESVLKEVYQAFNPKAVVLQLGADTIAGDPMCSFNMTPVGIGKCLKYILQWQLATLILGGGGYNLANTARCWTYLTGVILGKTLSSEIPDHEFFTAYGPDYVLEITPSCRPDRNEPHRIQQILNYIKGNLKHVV
The experiment in a line: Inhibition of human KDAC8 after 60 mins by fluorescence assay.

For test [2], the target named is T3, Histone deacetylase 1 (Homo sapiens, UniProt Q13547). The experiment in a line: Inhibition of human KDAC1 at 30 uM using substrate A after 60 mins by fluorescence assay relative to control.
In test [3] the target is T3, Histone deacetylase 1. The experiment in a line: Inhibition of human KDAC1 using substrate A after 60 mins by fluorescence assay.
Test [4] deals with T4, Histone deacetylase 3 (Homo sapiens, UniProt O15379). Briefly: Inhibition of human KDAC3 at 30 uM using FITC-labeled p53 acetylated peptide as substrate after 60 mins by fluorescence assay relative to control.
In test [5] the target is T5, Histone deacetylase 8 (Homo sapiens) (UniProt Q9BY41).
T5 sequence (whole entry): T2 sequence (Q9BY41 whole entry)
Briefly: Inhibition of human KDAC8 at 30 uM after 60 mins by fluorescence assay relative to control.

The target in test [6] is T4, Histone deacetylase 3. Briefly: Inhibition of human KDAC3 using FITC-labeled p53 acetylated peptide as substrate after 60 mins by fluorescence assay.
The target in test [7] is T6, Protein deacetylase HDAC6 (Homo sapiens) (UniProt Q9UBN7).
T6 sequence (whole entry): T1 sequence (Q9UBN7 whole entry)
As to conditions: at 30 µM.
Description: Inhibition of human KDAC6 at 30 uM using FITC-labeled histone H4 acetylated peptide as substrate after 60 mins by fluorescence assay relative to control

Where only a bound is given, the exact number is not on record here.

T4 sequence (O15379 whole entry): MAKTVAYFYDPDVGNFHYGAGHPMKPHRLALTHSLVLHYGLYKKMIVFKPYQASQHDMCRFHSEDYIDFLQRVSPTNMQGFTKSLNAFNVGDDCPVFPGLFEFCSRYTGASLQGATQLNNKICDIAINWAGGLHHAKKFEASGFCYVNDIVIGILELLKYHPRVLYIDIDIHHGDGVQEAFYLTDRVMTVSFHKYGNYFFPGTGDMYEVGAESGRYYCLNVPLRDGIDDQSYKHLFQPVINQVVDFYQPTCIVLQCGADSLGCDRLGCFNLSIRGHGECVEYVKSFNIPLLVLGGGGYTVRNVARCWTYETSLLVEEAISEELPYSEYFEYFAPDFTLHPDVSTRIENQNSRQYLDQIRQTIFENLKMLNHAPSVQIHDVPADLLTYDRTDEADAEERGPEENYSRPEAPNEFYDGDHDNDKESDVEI
T3 sequence (Q13547 whole entry): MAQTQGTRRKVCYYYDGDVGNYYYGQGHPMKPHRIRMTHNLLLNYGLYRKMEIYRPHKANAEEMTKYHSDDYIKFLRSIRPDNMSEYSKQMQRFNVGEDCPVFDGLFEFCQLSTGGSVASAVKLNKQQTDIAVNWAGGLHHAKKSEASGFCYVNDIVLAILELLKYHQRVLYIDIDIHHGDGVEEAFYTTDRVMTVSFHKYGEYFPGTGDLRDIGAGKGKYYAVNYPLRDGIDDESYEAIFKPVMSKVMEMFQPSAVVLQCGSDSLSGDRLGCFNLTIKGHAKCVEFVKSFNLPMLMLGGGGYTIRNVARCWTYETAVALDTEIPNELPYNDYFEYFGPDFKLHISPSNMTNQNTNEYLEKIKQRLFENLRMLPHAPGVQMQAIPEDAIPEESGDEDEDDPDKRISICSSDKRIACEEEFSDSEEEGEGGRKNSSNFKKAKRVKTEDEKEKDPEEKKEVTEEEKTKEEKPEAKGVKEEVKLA

`CC[C@H](C)[C@@H]1N=C(c2ccccc2)c2ccccc2N(CCCCC(=O)O)C1=O`: the concentration for half-maximal inhibition (IC50) (in test [1]; against Histone deacetylase 8; against Histone deacetylase 1 [3]; against Histone deacetylase 3 [6]) was over 30 µM each time. Also, the inhibition came out at 0% at Histone deacetylase 1 [2], 0% against Histone deacetylase 3 [4], 3.99% in test [5] and 0% in test [7].
Turning to `O=C(CCCCN1C(=O)CN=C(c2ccccc2)c2ccccc21)NO`, the IC50 in test [1] worked out at 1.89 µM; against Histone deacetylase 8, 6.72 µM; against Histone deacetylase 1 [3], 3.84 µM; on Histone deacetylase 3 [6] it was 0.66 µM. Further, the inhibition was determined as 88.3% against Histone deacetylase 1 [2], 97.2% on Histone deacetylase 3 [4], 75.9% in test [5] and 94.2% in test [7].
Consider `O=C(O)C[C@H]1N=C(c2ccccc2)c2ccccc2NC1=O`, for which the 50% inhibitory concentration (IC50) (in test [1]; at Histone deacetylase 8; at Histone deacetylase 1 [3]; against Histone deacetylase 3 [6]) was over 30 µM throughout. Also, the inhibition on Histone deacetylase 1 [2] came to 0.74%; at Histone deacetylase 3 [4], 0%; in test [5] it was 0%; in test [7] it was 0%.
Take `COC(=O)CCCCN1C(=O)[C@H](CCCCNC(=O)OC(C)(C)C)N=C(c2ccccc2)c2ccccc21`: the IC50 (in test [1]; on Histone deacetylase 8; against Histone deacetylase 1 [3]; at Histone deacetylase 3 [6]) was over 30 µM each time. Further, the inhibition on Histone deacetylase 1 [2] worked out at 8.22%; against Histone deacetylase 3 [4], 1.96%; in test [5], 1.03%; in test [7] it was 0%.
In the case of `CC(C)(C)Oc1ccc(C[C@@H]2N=C(c3ccccc3)c3ccccc3N(CCCCC(=O)O)C2=O)cc1`, the IC50 (in test [1]; against Histone deacetylase 8; against Histone deacetylase 1 [3]; against Histone deacetylase 3 [6]) was over 30 µM each time. Besides, the inhibition against Histone deacetylase 1 [2] was 4.65%; at Histone deacetylase 3 [4] it was 1.05%; in test [5] it was 2.15%; in test [7], 0.28%.
For `NCCCC[C@@H]1N=C(c2ccccc2)c2ccccc2N(CCCCC(=O)NO)C1=O`, the 50% inhibitory concentration (IC50) is 12.1 µM in test [1], over 30 µM against Histone deacetylase 8, 6.54 µM at Histone deacetylase 1 [3] and 0.95 µM against Histone deacetylase 3 [6]. Besides, the inhibition is 79.5% against Histone deacetylase 1 [2], 99.1% on Histone deacetylase 3 [4], 7.7% in test [5] and 73.4% in test [7].
Take `CC(C)(C)OC(=O)NCCCC[C@@H]1N=C(c2ccccc2)c2ccccc2NC1=O`: the IC50 (in test [1]; against Histone deacetylase 8; on Histone deacetylase 1 [3]; on Histone deacetylase 3 [6]) was over 30 µM throughout. In addition, the inhibition on Histone deacetylase 1 [2] came out at 2.97%; against Histone deacetylase 3 [4], 0%; in test [5] it was 0%; in test [7], 0%.
In the case of `C[C@@H]1N=C(c2ccccc2)c2ccccc2N(CCCCC(=O)O)C1=O`, the half-maximal inhibitory concentration (IC50) (in test [1]; against Histone deacetylase 8; on Histone deacetylase 1 [3]; on Histone deacetylase 3 [6]) was over 30 µM each time. Besides, the inhibition at Histone deacetylase 1 [2] is 11.3%; against Histone deacetylase 3 [4], 0%; in test [5] it was 8.87%; in test [7] it was 0.27%.
Take `COC(=O)CCCCN1C(=O)[C@H](Cc2cncn2C(c2ccccc2)(c2ccccc2)c2ccccc2)N=C(c2ccccc2)c2ccccc21`: the half-inhibitory concentration (IC50) (in test [1]; against Histone deacetylase 8; on Histone deacetylase 1 [3]; at Histone deacetylase 3 [6]) was over 30 µM throughout. Moreover, the inhibition against Histone deacetylase 1 [2] is 4.66%; at Histone deacetylase 3 [4], 0%; in test [5], 12.1%; in test [7], 5.33%.
In the case of `CC(C)(C)OC(=O)C[C@@H]1N=C(c2ccccc2)c2ccccc2N(CCCCC(=O)NO)C1=O`, the IC50 stood at 6.43 µM in test [1], 22.4 µM at Histone deacetylase 8, 15.7 µM against Histone deacetylase 1 [3] and 4.15 µM against Histone deacetylase 3 [6]. Moreover, the inhibition at Histone deacetylase 1 [2] was determined as 64.1%; on Histone deacetylase 3 [4], 91.5%; in test [5], 62.3%; in test [7] it was 80.6%.
As for `C[C@@H]1N=C(c2ccccc2)c2ccccc2N(CCCCC(=O)NO)C1=O`, the IC50 in test [1] came out at 2.95 µM; against Histone deacetylase 8, 24.7 µM; against Histone deacetylase 1 [3], 12.7 µM; at Histone deacetylase 3 [6] it was 1.8 µM. Moreover, the inhibition against Histone deacetylase 1 [2] amounted to 68.4%; against Histone deacetylase 3 [4] it was 93.8%; in test [5], 53.8%; in test [7] it was 92.7%.
With `NC(=O)C[C@@H]1N=C(c2ccccc2)c2ccccc2N(CCCCC(=O)NO)C1=O`, the 50% inhibitory concentration (IC50) in test [1] is 5.38 µM; against Histone deacetylase 8, over 30 µM; against Histone deacetylase 1 [3] it was 22.5 µM; on Histone deacetylase 3 [6] it was 3.1 µM. Besides, the inhibition against Histone deacetylase 1 [2] was found to be 57.6%; against Histone deacetylase 3 [4], 90.9%; in test [5], 26.2%; in test [7] it was 82.2%.
For `O=C(O)C[C@@H]1N=C(c2ccccc2)c2ccccc2NC1=O`, the concentration for half-maximal inhibition (IC50) (in test [1]; against Histone deacetylase 8; against Histone deacetylase 1 [3]; at Histone deacetylase 3 [6]) was over 30 µM each time. The inhibition against Histone deacetylase 1 [2] is 3.13%; at Histone deacetylase 3 [4], 0%; in test [5] it was 0%; in test [7], 0%.
Consider `O=C(CCCNC(=O)C[C@@H]1N=C(c2ccccc2)c2ccccc2NC1=O)NO`, for which the IC50 in test [1] is 1.76 µM; on Histone deacetylase 8, over 30 µM; on Histone deacetylase 1 [3] it was 17.4 µM; against Histone deacetylase 3 [6], 3.21 µM. In addition, the inhibition at Histone deacetylase 1 [2] was found to be 63.5%; against Histone deacetylase 3 [4] it was 90.7%; in test [5], 45.1%; in test [7], 95%.
For the compound `COC(=O)CCCCN1C(=O)[C@H](C)N=C(c2ccccc2)c2ccccc21`, the IC50 (in test [1]; on Histone deacetylase 8; at Histone deacetylase 1 [3]; against Histone deacetylase 3 [6]) was over 30 µM in each case. The inhibition stood at 9.4% at Histone deacetylase 1 [2], 4.62% against Histone deacetylase 3 [4], 12.7% in test [5] and 8.84% in test [7].
In the case of `CSCC[C@@H]1N=C(c2ccccc2)c2ccccc2N(CCCCC(=O)NO)C1=O`, the IC50 in test [1] stood at 1.7 µM; on Histone deacetylase 8, 20.3 µM; against Histone deacetylase 1 [3] it was 6.43 µM; against Histone deacetylase 3 [6], 0.43 µM. The inhibition was 81.6% on Histone deacetylase 1 [2], 98.9% on Histone deacetylase 3 [4], 57.7% in test [5] and 93.1% in test [7].
On to `O=C(CCCCN1C(=O)[C@@H](CS)N=C(c2ccccc2)c2ccccc21)NO`, for which the 50% inhibitory concentration (IC50) in test [1] is 0.58 µM; against Histone deacetylase 8 it was 8.11 µM; against Histone deacetylase 1 [3], 0.46 µM; on Histone deacetylase 3 [6], 0.18 µM. Moreover, the inhibition against Histone deacetylase 1 [2] is 97.3%; against Histone deacetylase 3 [4] it was 100%; in test [5] it was 81.2%; in test [7], 96.9%.
With `O=C(CCCCN1C(=O)[C@H](CO)N=C(c2ccccc2)c2ccccc21)NO`, the IC50 in test [1] was 6.35 µM; on Histone deacetylase 8, over 30 µM; against Histone deacetylase 1 [3] it was over 30 µM; against Histone deacetylase 3 [6] it was 4.94 µM. Moreover, the inhibition against Histone deacetylase 1 [2] came out at 41%; against Histone deacetylase 3 [4], 85.9%; in test [5], 19.9%; in test [7], 74.4%.
